Reference: patent US9399636B2, “Substituted dipyridylamines and uses thereof” (Genentech, Inc., priority 2012, dated 2016)

Molecular target: T1, DLK (Homo sapiens, UniProt Q12852)
T1 construct: N-terminally GST-tagged DLK (catalytic domain amino acid 1-520) (Carna Bioscience); GST (N); purchased Carna Bioscience
T1 sequence (Q12852 1-520): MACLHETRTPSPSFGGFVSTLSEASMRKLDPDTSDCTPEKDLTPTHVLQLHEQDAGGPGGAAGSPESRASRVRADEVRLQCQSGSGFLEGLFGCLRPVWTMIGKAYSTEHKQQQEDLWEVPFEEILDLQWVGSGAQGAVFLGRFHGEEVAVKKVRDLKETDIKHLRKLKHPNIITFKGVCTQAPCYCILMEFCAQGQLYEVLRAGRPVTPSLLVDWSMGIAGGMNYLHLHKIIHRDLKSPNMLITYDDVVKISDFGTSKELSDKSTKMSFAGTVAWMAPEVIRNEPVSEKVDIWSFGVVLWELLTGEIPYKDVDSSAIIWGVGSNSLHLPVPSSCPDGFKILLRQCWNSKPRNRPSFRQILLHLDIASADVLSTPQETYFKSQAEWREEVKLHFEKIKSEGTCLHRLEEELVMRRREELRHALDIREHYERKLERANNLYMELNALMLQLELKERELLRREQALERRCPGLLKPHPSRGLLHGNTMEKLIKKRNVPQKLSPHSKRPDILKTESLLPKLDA
Assay: DLK TR-FRET assay
Type: biochemical
Conditions: 5 nM GST-tagged DLK (catalytic domain amino acid 1-520), 40 nM HIS-tagged MKK4 K131M substrate, 30 μM ATP, 60 minutes
Description: DLK TR-FRET assay: DLK kinase reactions (20 μL) containing 5 nM N-terminally GST-tagged DLK (catalytic domain amino acid 1-520) (Carna Bioscience), 40 nM N-terminally HIS-tagged MKK4 K131M substrate, and 30 μM ATP in kinase reaction buffer (50 mM HEPES, pH 7.5, 0.01% Triton X-100, 0.01% Bovine γ-Globulins, 2 mM DTT, 10 mM MgCl2 and 1 mM EGTA), and testing compound 1:3 serial diluted starting at 20 uM were incubated at ambient temperature for 60 minutes in 384 well OptiPlate (Perkin Elmer). To quench kinase reactions and detect phosphorylated MKK4, 15 μL of TR-FRET antibody mixture containing 2 nM anti-phosphorylated MKK4 labeled with Europium cryptate (Cisbio) and 23 nM anti-HIS labeled with D2 (Cisbio) in detection buffer (25 mM Tris pH 7.5, 100 mM NaCl, 100 mM EDTA, 0.01% Tween-20, and 200 mM KF) was added to the reaction mixture. The detection mixture was incubated for 3 hours at ambient temperature and the TR-FRET was detected with an EnVision multilabel plate reader (Perkin-Elmer) using the LANCE/DELFIA Dual Enh label from Perkin-Elmer (excitation filter: UV2 (TRF) 320 and emission filters: APC 665 and Europium 615).

| Compound | Ki |
| --- | --- |
| FC1CN(c2cc(C3CCN(C4COC4)CC3)cc(Nc3cc(C(F)F)ccn3)n2)C1 [Example 44, (4-Difluoromethyl-pyridin-2-yl)-[6-(3-fluoro-azetidin-1-yl)-1′-oxetan-3-yl-1′,2′,3′,4′,5′,6′-hexahydro-[4,4′]bipyridinyl-2-yl]-amine] | 6.8 nM |
| CC(C)(C)OC(=O)N1CC(c2cc(Cl)nc(Nc3cc(C(F)F)ccn3)c2)C1 [Example 45, 3-[2-Chloro-6-(4-difluoromethyl-pyridin-2-ylamino)-pyridin-4-yl]-azetidine-1-carboxylic acid tert-butyl ester] | 48 nM |
| N#Cc1ccnc(Nc2cc(C3(C#N)CCOCC3)cc(N3CC(F)C3)n2)c1 [Example 46, 2-[4-(4-Cyano-tetrahydro-pyran-4-yl)-6-(3-fluoro-azetidin-1-yl)-pyridin-2-ylamino]-isonicotinonitrile] | 13 nM |
| N#Cc1ccnc(Nc2cc(C3(C#N)CCOCC3)cc(N3CCCC3=O)n2)c1 [Example 47, 2-[4-(4-Cyano-tetrahydro-pyran-4-yl)-6-(2-oxo-pyrrolidin-1-yl)-pyridin-2-ylamino]-isonicotinonitrile] | 40 nM |
| COC1CN(c2cc(C3CCN(C4COC4)CC3)cc(Nc3cc(C(F)F)ccn3)n2)C1 [Example 48, (4-Difluoromethyl-pyridin-2-yl)-[6-(3-methoxy-azetidin-1-yl)-1′-oxetan-3-yl-1′,2′,3′,4′,5′,6′-hexahydro-[4,4′]bipyridinyl-2-yl]-amine] | 21 nM |
| N#CC1(c2cc(Nc3cc(C(F)F)ccn3)nc(N3CCCC3=O)c2)CCOCC1 [Example 49, 4-[2-(4-Difluoromethyl-pyridin-2-ylamino)-6-(2-oxo-pyrrolidin-1-yl)-pyridin-4-yl]-tetrahydro-pyran-4-carbonitrile] | 19 nM |
| FC(F)c1ccnc(Nc2cc(C3CCN(C4COC4)CC3)cc(N3CC4CC4C3)n2)c1 (centres unmarked) [Example 50, [6-(3-Aza-bicyclo[3.1.0]hex-3-yl)-1′-oxetan-3-yl-1′,2′,3′,4′,5′,6′-hexahydro-[4,4′]bipyridinyl-2-yl]-(4-difluoromethyl-pyridin-2-yl)-amine] | 1 nM |
| FC(F)c1ccnc(Nc2cc(C3CCN(C4COC4)CC3)cc(N3CCC3)n2)c1 [Example 51, (6-Azetidin-1-yl-1′-oxetan-3-yl-1′,2′,3′,4′,5′,6′-hexahydro-[4,4′]bipyridinyl-2-yl)-(4-difluoromethyl-pyridin-2-yl)-amine] | 2.4 nM |
| N#CC1(c2cc(Nc3cc(C(F)F)ccn3)nc(N3CC4CC4C3)c2)CCOCC1 (centres unmarked) [Example 52, 4-[2-(3-Aza-bicyclo[3.1.0]hex-3-yl)-6-(4-difluoromethyl-pyridin-2-ylamino)-pyridin-4-yl]-tetrahydro-pyran-4-carbonitrile] | 2 nM |
| N#CC1(c2cc(Nc3cc(C(F)F)ccn3)nc(N3CCC3)c2)CCOCC1 [Example 53, 4-[2-Azetidin-1-yl-6-(4-difluoro-methyl-pyridin-2-ylamino)-pyridin-4-yl]-tetrahydro-pyran-4-carbonitrile] | 24 nM |
| COC1CN(c2cc(C3(C#N)CCOCC3)cc(Nc3cc(C(F)F)ccn3)n2)C1 [Example 54, 4-[2-(4-Difluoromethyl-pyridin-2-ylamino)-6-(3-methoxy-azetidin-1-yl)-pyridin-4-yl]-tetrahydro-pyran-4-carbonitrile] | 21 nM |
| N#CC1(c2cc(Nc3cc(C(F)F)ccn3)nc(N3CC(F)C3)c2)CCOCC1 [Example 55, 4-[2-(4-Difluoromethyl-pyridin-2-ylamino)-6-(3-fluoro-azetidin-1-yl)-pyridin-4-yl]-tetrahydro-pyran-4-carbonitrile] | 8.9 nM |
| N#CC1(c2cc(Nc3cc(C(F)F)ccn3)nc(N3CCC(F)(F)C3)c2)CCOCC1 [Example 56, 4-[2-(4-Difluoromethyl-pyridin-2-ylamino)-6-(3,3-difluoro-pyrrolidin-1-yl)-pyridin-4-yl]-tetrahydro-pyran-4-carbonitrile] | 2.1 nM |
| CC(=O)N1CCC(c2cc(Nc3cc(C(F)F)ccn3)nc(C3CC3)c2)CC1 [Example 57, 1-[6′-Cyclopropyl-2′-(4-difluoromethyl-pyridin-2-ylamino)-3,4,5,6-tetrahydro-2H-[4,4′]bipyridinyl-1-yl]-ethanone] | 3.5 nM |
| CCc1cc(C2CCN(C(C)=O)CC2)cc(Nc2cc(C(F)F)ccn2)n1 [Example 58, 1-[2′-(4-Difluoromethyl-pyridin-2-ylamino)-6′-ethyl-3,4,5,6-tetrahydro-2H-[4,4′]bipyridinyl-1-yl]-ethanone] | 64 nM |
| CC(=O)N1CCC(c2cc(Nc3cc(C#N)ccn3)nc(C3CC3)c2)CC1 [Example 59, 2-(1′-Acetyl-6-cyclopropyl-1′,2′,3′,4′,5′,6′-hexahydro-[4,4′]bipyridinyl-2-ylamino)-isonicotinonitrile] | 1.5 nM |
| CCc1cc(C2CCN(C(C)=O)CC2)cc(Nc2cc(C#N)ccn2)n1 [Example 60, 2-(1′-Acetyl-6-ethyl-1′,2′,3′,4′,5′,6′-hexahydro-[4,4′]bipyridinyl-2-ylamino)-isonicotinonitrile] | 28 nM |
| N#Cc1ccnc(Nc2cc(C3(C#N)CCOCC3)cc(N3CCC(F)(F)C3)n2)c1 [Example 61, 2-[4-(4-Cyano-tetrahydro-pyran-4-yl)-6-(3,3-difluoro-pyrrolidin-1-yl)-pyridin-2-ylamino]-isonicotinonitrile] | 4.7 nM |
| CC(=O)N1CCC(c2cc(C)nc(Nc3cc(C(F)F)ccn3)c2)CC1 [Example 62, 1-[2′-(4-Difluoromethyl-pyridin-2-ylamino)-6′-methyl-3,4,5,6-tetrahydro-2H-[4,4′]bipyridinyl-1-yl]-ethanone] | 170 nM |
| N#Cc1ccnc(Nc2cc(C3(C#N)CCOCC3)cc(C3CC3)n2)c1 [Example 63, 2-[4-(4-Cyano-tetrahydro-pyran-4-yl)-6-cyclopropyl-pyridin-2-ylamino]-isonicotinonitrile] | 8.6 nM |
| Cc1cc(C2(C#N)CCOCC2)cc(Nc2cc(C#N)ccn2)n1 [Example 64, 2-[4-(4-Cyano-tetrahydro-pyran-4-yl)-6-methyl-pyridin-2-ylamino]-isonicotinonitrile] | 170 nM |
| CC(=O)N1CCC(c2cc(Cl)nc(Nc3cc(C#N)ccn3)c2)CC1 [Example 65, 2-(1′-Acetyl-6-chloro-1′,2′,3′,4′,5′,6′-hexahydro-[4,4′]bipyridinyl-2-ylamino)-isonicotinonitrile] | 30 nM |
| N#CC1(c2cc(Cl)nc(Nc3cc(C(F)F)ccn3)c2)CCOCC1 [Example 66, 4-[2-Chloro-6-(4-difluoromethyl-pyridin-2-ylamino)-pyridin-4-yl]-tetrahydro-pyran-4-carbonitrile] | 43 nM |
| N#Cc1ccnc(Nc2cc(C3(C#N)CCOCC3)cc(N3CC4CC4C3)n2)c1 (centres unmarked) [Example 67, 2-[6-(3-Aza-bicyclo[3.1.0]hex-3-yl)-4-(4-cyano-tetrahydro-pyran-4-yl)-pyridin-2-ylamino]-isonicotinonitrile] | 0.4 nM |
| C[C@@H]1CCCN1c1cc(C2CCN(C3COC3)CC2)cc(Nc2cc(C(F)F)ccn2)n1 [Example 68, (4-Difluoromethyl-pyridin-2-yl)-[6-((R)-2-methyl-pyrrolidin-1-yl)-1′-oxetan-3-yl-1′,2′,3′,4′,5′,6′-hexahydro-[4,4′]bipyridinyl-2-yl]-amine] | 0.3 nM |
| N#Cc1ccnc(Nc2cc(C3(C#N)CCOCC3)cc(N3CC4CC(F)(F)C4C3)n2)c1 (centres unmarked) [Example 69, 2-[4-(4-Cyano-tetrahydro-pyran-4-yl)-6-(6,6-difluoro-3-aza-bicyclo[3.2.0]hept-3-yl)-pyridin-2-ylamino]-isonicotinonitrile] | 4 nM |
| N#Cc1ccnc(Nc2cc(C3CCN(C4COC4)CC3)cc(N3CCC[C@@H]3C(F)(F)F)n2)c1 [Example 70, 2-[1′-Oxetan-3-yl-6-((R)-2-trifluoromethyl-pyrrolidin-1-yl)-1′,2′,3′,4′,5′,6′-hexahydro-[4,4′]bipyridinyl-2-ylamino]-isonicotinonitrile] | 1.8 nM |
| FC(F)c1ccnc(Nc2cc(C3CCN(C4COC4)CC3)cc(N3CCC(F)(F)C3)n2)c1 [Example 71, (4-Difluoromethyl-pyridin-2-yl)-[6-(3,3-difluoro-pyrrolidin-1-yl)-1′-oxetan-3-yl-1′,2′,3′,4′,5′,6′-hexahydro-[4,4′]bipyridinyl-2-yl]-amine] | 0.36 nM |
| Cc1cc(C2CCN(CC(F)(F)F)CC2)cc(Nc2cc(C#N)ccn2)n1 [Example 72, 2-[6-Methyl-1′-(2,2,2-trifluoro-ethyl)-1′,2′,3′,4′,5′,6′-hexahydro-[4,4′]bipyridinyl-2-ylamino]-isonicotinonitrile] | 150 nM |
